What was measured:
[1] = target: T1, Tyrosine-protein phosphatase non-receptor type 1 (Homo sapiens, UniProt P18031); assay: Competitive inhibition of recombinant human PTP1B using p-NPP as substrate assessed as inhibition constant incubated for 30 mins by Lineweaver-Burk plot analysis
T1 sequence (P18031 whole entry): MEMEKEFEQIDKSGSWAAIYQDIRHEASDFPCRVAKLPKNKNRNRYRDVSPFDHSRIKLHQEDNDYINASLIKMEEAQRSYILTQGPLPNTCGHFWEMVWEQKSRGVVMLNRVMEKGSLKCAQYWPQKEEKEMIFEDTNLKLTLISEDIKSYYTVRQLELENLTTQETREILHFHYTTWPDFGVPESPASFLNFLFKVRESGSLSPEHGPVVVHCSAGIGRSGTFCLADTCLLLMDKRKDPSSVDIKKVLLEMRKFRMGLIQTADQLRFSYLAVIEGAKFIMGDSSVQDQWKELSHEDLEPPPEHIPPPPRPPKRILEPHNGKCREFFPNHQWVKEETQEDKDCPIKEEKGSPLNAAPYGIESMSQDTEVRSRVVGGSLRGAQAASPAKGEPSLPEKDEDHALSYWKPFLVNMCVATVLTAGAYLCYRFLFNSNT

[2] = target: T1, Tyrosine-protein phosphatase non-receptor type 1; assay: Inhibition of recombinant human PTP1B using p-NPP as substrate incubated for 30 mins by absorbance based microplate reader

Ki [1] [µM] | IC50 [2] [µM] | Structure (SMILES)
12.2 | 7.28 | CC1(C)[C@@H](O)CC[C@@]2(C)[C@H]1CC[C@@]1(C)CC3=CC[C@H]4C(C)(C)[C@@H](O)CC[C@]4(C)[C@H]3CC[C@@H]12
– | > 30 | CC(=O)O[C@H]1CC[C@@]2(C)[C@@H](CC[C@@]3(C)CC4=CC[C@H]5C(C)(C)[C@@H](O)CC[C@]5(C)[C@H]4CC[C@@H]32)C1(C)C
11.9 | 4.65 | CC1(C)[C@@H](O)CC[C@@]2(C)[C@H]1CC[C@@]1(C)CC3=CC[C@H]4C(C)(C)[C@H](O)CC[C@]4(C)[C@H]3CC[C@@H]12
– | > 30 | CC(=O)O[C@H]1CC[C@@]2(C)[C@@H](CC[C@]3(O)C[C@]4(C)CC[C@H]5C(C)(C)[C@@H](O)CC[C@]5(C)[C@H]4CC[C@@H]32)C1(C)C
